Test results taken from article PMC5481520 (Microbial Biotechnology, 2017).

Biological target: T1, LdtR (Candidatus Liberibacter asiaticus, UniProt A0ABN4AZS1)
T1 construct: gene WSI_01095
Type: binding
Settings: promoters of CLIBASIA_02120 and CLIBASIA_03520; pH 7.2, 150 mM KCl, 10 mM MgCl2, 37 °C

SMILES | EMSA, disruption of LdtR binding to promoter DNA
CCc1oc2ccccc2c1C(=O)c1cc(Br)c(O)c(Br)c1 [benzbromarone] | benzbromarone and phloretin disrupted the binding of LdtR to both promoters (Fig. S2)
O=C(CCc1ccc(O)cc1)c1c(O)cc(O)cc1O [phloretin] | benzbromarone and phloretin disrupted the binding of LdtR to both promoters (Fig. S2)
